Laboratory results published in a melting point compilation (Tetko et al.; mined from patent text by program, amines drawn as free bases though some values may be those of a salt).

SMILES	melting point [°C]
CCCCCCCCCCCCCCCCNc1ccc(O)c2c1C(=O)c1c(N)ccc(N)c1C2=O	174
COC(=O)c1cccc(NC(=O)Oc2ccc([N+](=O)[O-])cc2)c1	184 to 186
Cn1cc(C2=C(c3cccc(NC4COC(C)(C)OC4)c3)C(=O)NC2=O)c2ccccc21	201 to 203
O=c1[nH]c(=O)n(C2OC(CBr)C(O)C2F)cc1C=CBr (stereo unspecified)	223
CCOC(=O)C1=C(C)NC(=O)N(C(=O)OCC)C1c1ccccc1C(F)(F)F (stereo unspecified)	161 to 163
CN1Cn2ncc([N+](=O)[O-])c2-c2ccccc21	172 to 173
CNC(=O)C(Cc1ccc(OC)cc1)NC(=O)C(CC(C)C)C(S)CC(=O)N1CCN(C)CC1 (stereo unspecified)	65 to 68
O=C1NCN2c3ccccc3Oc3cccc1c32	> 300
COc1cccc(Cn2cc3c(-c4cccc(C(=O)NCCC#N)c4)cccc3n2)c1	176 to 177
O=C(OC1c2nccnc2C(=O)N1c1ccc(Cl)cn1)N1CCNCC1 (stereo unspecified)	205
COC(=O)C1Oc2ccc(Cl)cc2C(c2ccccc2)(C(C)(C)C)O1 (stereo unspecified)	85
COc1cc(OC)c(CSC(C)(C)CCO)c(OC)c1	69 to 72
COc1cccc(CNC(CCCCCC(=O)O)C(C)C)c1 (stereo unspecified)	64 to 67
CC(=O)n1c(C(=O)O)cc2cc3c(cc21)OCO3	164 to 166
CN(C)C(=O)c1cc2c(nc(C3CC3)n2C)c2c1CCC(c1ccccc1)O2 (stereo unspecified)	176 to 179
Cc1ccc(CC2CCN(C(=O)CNc3ccc(NS(C)(=O)=O)cc3)CC2)cc1	133 to 135
S=c1n(-c2ccc(Cl)cc2Cl)nc2n1CCCC2	118 to 120
COc1ccc(OC)c(COc2cc(Cl)sn2)c1	52 to 55
O=C(O)c1ccc(Oc2ccc([N+](=O)[O-])cc2)cc1O	195 to 197
COCc1cccc(-c2coc3ccc(-c4nnc(C)o4)cc23)c1	111 to 112
Fc1ccc(Cn2c(NC3CCN(CCNc4nc5cccnc5s4)CC3)nc3ccccc32)cc1	204

SMILES	melting point [°C]
N#Cc1ccc(OCCCCCCOc2ccc(-c3cc4cc(C#N)ccc4o3)cc2)cc1	148 to 151
Cc1[nH]c2ccccc2c1CCN1CCN(N)CC1	118 to 120
CC1Cc2cc(-n3ccnc3)ccc2C1=O (stereo unspecified)	103 to 106
O=C1N(Cc2ccc(C(F)(F)F)o2)c2ccccc2C12COc1cc3c(nc12)OCO3 (stereo unspecified)	175 to 177
Fc1ccc(-c2[nH]nc(C3=CC4CCCN4CC3)c2-c2ccncc2)cc1 (stereo unspecified)	204 to 208
CCOCc1cc2c(s1)CCCc1cc(=O)n(-c3ccc(C)cc3)nc1-2	92 to 93
Cc1c(NC(=O)c2ccc(OCC3CC3)cc2)ccc2cc(C(C)N3CCCC3)cnc12 (stereo unspecified)	162 to 164
CC(=O)c1ccc2c(c1)C(c1ccccc1F)=NC(C)(C)C(=O)N2	59
OC1(c2cnccn2)CN2CCC1C2 (stereo unspecified)	180 to 183
COc1ccc(-c2nc3ccc(C=Cc4ccc5nc(-c6ccc(OC)cc6)oc5c4)cc3o2)cc1	162
COc1ccc([N+](=O)[O-])c(OC2CCOC2=O)c1 (stereo unspecified)	109 to 110
Cc1cc(C)c(Nc2nc(C)ccc2S(=O)(=O)c2ccc(O)cc2)c(C)c1	226 to 228
Cn1nnnc1SCCCS(=O)(=O)c1ccccn1	98.5 to 101
CCCNC(=O)CSc1nc(-c2ccccc2)c(-c2ccccc2)[nH]1	183 to 185
CCC(=O)On1c(=O)c(=O)[nH]c2cc(C(F)(F)F)c(C#N)cc21	227
CCC(=O)Nc1cccc(C)c1C(=O)O	152
COC(=O)c1cc(OC)c(OC)cc1OC	91.5 to 92.5
O=C1N(Cc2cc(F)ccn2)c2ccccc2C12COc1cc3c(cc12)OCCO3 (stereo unspecified)	228 to 231
CS(=O)c1cccc2c1CC(=O)N2C(N)=O (stereo unspecified)	198 to 200
CCCOc1ccc2c(c1)NC(=O)CO2	102 to 104
